# Measured values taken from patent US20100305174A1, “Novel Heterocyclic Derivatives” (ORCHID RESEARCH LABORATORIES LIMITED, priority 2005, published 2010).
# Like-named read-outs stand apart in the source and are kept apart here.
# What was measured:
# DPP IV = target: T1, DPP IV (Homo sapiens, UniProt P27487); assay: DPP IV assay (human plasma as source, H-gly-pro AMC substrate); assay type: biochemical; settings: compared to vehicle control
# T1 construct: using human plasma as a source of DPP IV; from tissue; host or cells: human plasma
# Experimental: DPP IV assay is carried by using human plasma as a source of DPP IV. The compounds were incubated at a concentration of 1 and 10 μM in assay buffer containing DPP IV enzyme. The compounds were incubated for 1 hr and then the substrate H-gly-pro AMC was added and further incubated for 20 min and then the reaction was stopped on addition of 25% glacial acetic acid. The plates were read in a spectrofluorimeter to get RFU on setting excitation wavelength of 360 nm and emission wavelength of 460 nm. Percentage inhibition is calculated as compared to vehicle control.
# TNF-α = TNF-α inhibition in LPS-challenged human PBMC; assay type: cell-based; settings: for inhibition at 1 µM / inhibition at 10 µM: Homo sapiens, PBMC, read-out: % Inhibition TNF alpha; for inhibition at 1 µM / inhibition at 10 µM / % Inhibition TNF alpha: LPS 100 ng/mL, 20 hours
# Experimental: (§1) Human PBMC cells were cultured and incubated with compounds listed in table-4 at 1 and 10 μM concentrations. Cells (1×10^6/mL) were challenged with lipopolysaccharides (LPS) at a concentration of (100 ng/mL) for 20 hours. Cell supernatant was analyzed for the presence of TNF-α, IL-1β and IL-6 cytokines by antibody directed enzyme-linked immunoassay.
# IL-6 = IL-6 inhibition in LPS-challenged human PBMC; assay type: cell-based; settings: for inhibition at 1 µM / inhibition at 10 µM: Homo sapiens, PBMC, LPS 100 ng/mL, 20 hours
# Experimental: as §1
# IL-1β = IL-1β inhibition in LPS-challenged human PBMC; assay type: cell-based; settings: for inhibition at 1 µM / inhibition at 10 µM: Homo sapiens, PBMC, read-out: % Inhibition IL1beta
# Experimental: as §1
# 3T3-L1 cells = assay: Glucose uptake assay using 3T3-L1 cells; assay type: cell-based; settings: for Stimulation Index: 1 μM, 72 hours, differentiated 3T3-L1 adipocytes, 14C deoxyglucose uptake, relative to BLX-1002
# Experimental: 3T3-L1 cells were differentiated by the addition of differentiation cocktail (72 μg/ml insulin, 0.5 mM IBMX, 400 ng/ml Dexamethasone) for 4 days and later fed with media without differentation cocktail for 7-8 days. After differentiation the cells were incubated with the either reference compound BLX-1002 or compounds listed in the table 1 at 1 μM concentrations for 72 hours and carried out the glucose uptake assay for 10 min by the addition of KRP buffer supplemented with 2.5 μCi/ml ^14C deoxy glucose. Stimulation Index is defined as the amount of ^14C Deoxyglucose uptake induced by 1 μM of BLX-1002 incubated for 72 hrs in an assay condition as per protocol described above with differentiated 3T3-L1 adipocytes. Values of compounds mentioned in table-1 are with reference to stimulation index of reference compound BLX-1002.
# 3T3-L1 fibroblasts = assay: Adipogenesis assay in 3T3-L1 (Oil-red-O staining); assay type: cell-based
# Experimental: All known PPARγ agonists induce differentiation in fibroblast cells. The adipogenic potential of these compounds is correlated with their affinity to this receptor. To check quickly the affinity of compounds to these receptors, 3T3-L1 fibroblasts were treated with either DMSO control or rosiglitazone as positive control or the compounds at 1 μM concentration for several days. On day 13th, the differentiated adipocytes were stained with Oil-red-O (Sigma) and washed thoroughly to remove unbound stain and visualized under Olympus microscope. […] This is an indirect proof that example 78 have no affinity to PPARγ receptor.
# [1] = system: streptozotocin induced diabetic mice; assay: Antidiabetic activity in streptozotocin induced diabetic mice; assay type: in vivo, Swiss albino mice; settings: Mus musculus, 168 h, 50 mg/kg oral, 7 days, plasma, compared to control group
# Experimental: Swiss albino mice of either sex were used in the study at the age of 10 weeks. Diabetes was induced in animals by injecting streptozotocin by i.p. route at a dose of 200 mg/kg body weight. 48 hours after streptozotocin administration, the animals were kept for fasting for 6 hours and blood was collected and plasma separated and glucose was estimated. Animals showing greater than 200 mg/dl glucose levels were considered as diabetic and these animals were randomly distributed into various groups. The compounds listed in the table 3 were administered at a dose of 50 mg/kg body weight by oral route for 7 days. Later animals were fasted for 6 hours and blood was collected and plasma separated. Biochemical estimations like glucose, cholesterol and triglycerides were carried out using the plasma. The effect of compounds mentioned in the table was expressed in terms of percentage reduction in biochemical values as compared to control group.
# MCF-7 = assay: Inhibition of breast cancer cell growth (MTS); assay type: cell-based; settings: 10 μM, six days, MTS viability
# Experimental: MCF-7 is a breast cancer cell line and they were grown in 96 well plates at 1000 cells/well. The cells were pretreated with compounds mentioned in FIG. 2 at 10 μM concentration or taxol at 1 and 2.5 μM concentration or DMSO for six consecutive days. Every 48 hrs they were stained with MTS dye and viability was checked accordingly.
# HT-29 = assay: Inhibition of colon cancer cell growth (MTS); assay type: cell-based; settings: 10 μM, six days, MTS viability
# Experimental: HT-29 is a colon cancer cell line and they were grown in 96 well plates with seeding concentration of 1000 cells/well. The cells were pretreated with compounds mentioned in FIG. 3 at 10 μM concentrations or taxol at 1 and 2.5 μM concentration or DMSO for six consecutive days. Every 48 hrs they were stained with MTS dye and viability was checked accordingly.
# [2] = at tested concentrations, statement in words
# T1 sequence (P27487 39-766 limits assumed): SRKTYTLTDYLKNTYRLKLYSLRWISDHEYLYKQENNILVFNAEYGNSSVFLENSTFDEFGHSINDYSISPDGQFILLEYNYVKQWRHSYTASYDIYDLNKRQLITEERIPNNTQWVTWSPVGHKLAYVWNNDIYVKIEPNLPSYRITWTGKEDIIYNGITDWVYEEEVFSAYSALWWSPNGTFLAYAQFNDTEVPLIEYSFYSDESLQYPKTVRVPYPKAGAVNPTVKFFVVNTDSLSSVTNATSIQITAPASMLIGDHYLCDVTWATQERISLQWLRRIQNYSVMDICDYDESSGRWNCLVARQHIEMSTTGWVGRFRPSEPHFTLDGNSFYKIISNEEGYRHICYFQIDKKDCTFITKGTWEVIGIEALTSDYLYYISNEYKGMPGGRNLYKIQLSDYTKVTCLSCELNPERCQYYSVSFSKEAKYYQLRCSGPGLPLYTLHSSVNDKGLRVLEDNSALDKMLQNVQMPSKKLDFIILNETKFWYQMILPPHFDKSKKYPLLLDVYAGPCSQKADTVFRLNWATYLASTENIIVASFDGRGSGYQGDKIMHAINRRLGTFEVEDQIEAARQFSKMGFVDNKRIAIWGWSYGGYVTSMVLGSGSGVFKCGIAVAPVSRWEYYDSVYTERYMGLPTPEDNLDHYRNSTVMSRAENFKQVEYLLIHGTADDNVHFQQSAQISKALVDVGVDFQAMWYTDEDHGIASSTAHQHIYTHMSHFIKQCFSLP
Compound,inhibition at 1 µM (TNF-α; 1 μM) [%],inhibition at 10 µM (TNF-α; 10 μM) [%],inhibition at 1 µM (IL-6) [%],"inhibition at 1 µM (IL-1β; 1 μM, LPS 100 ng/mL, 20 hours) [%]",inhibition at 10 µM (IL-6) [%],"inhibition at 10 µM (IL-1β; LPS 100 ng/mL, 20 hours) [%]",further results
CCN1C(=O)OCC1Cc1ccc(Oc2ccc(/C=C3\C(=O)Nc4ccccc43)cc2C(F)(F)F)cc1 (stereo not drawn) [Example 15],24.5,15.9,1.16,1.78,–,–,inhibition at 1 µM (DPP IV): 7.07%; inhibition at 10 µM (DPP IV): 9.86%
CCN1C(=O)OCC1Cc1ccc(Oc2ccc(/C=C3\C(=O)Nc4ccccc43)cc2F)cc1 (stereo not drawn) [Example 12],13.6,28.1,2.67,–,1.65,–,–
"CCN1C(=O)OCC1Cc1ccc(Oc2ccc(CC3SC(=S)NC3=O)cc2)cc1 (stereo not drawn) [Example 78, 3-ethyl-4-(4-{4-[(4-oxo-2-thioxo-1,3-thiazolidin-5-yl)methyl]phenoxy}benzyl)-1,3-oxazolidin-2-one]",–,–,–,–,–,–,"glucose uptake activity (3T3-L1 cells; statement in words, table-1 assay): good glucose uptake activity; adipogenesis (Oil-red-O staining) (3T3-L1 fibroblasts; 1 μM, stained on day 13): remained unchanged; adipogenesis DRC, Oil-red-O staining (3T3-L1 fibroblasts; at tested concentrations): did not show significant staining; affinity to PPARγ receptor (3T3-L1 fibroblasts; indirect proof from adipogenesis assay): no affinity; inhibition in vivo at 50 mg/kg ([1]; read-out: % Reduction Cholesterol): 59%; inhibition in vivo at 50 mg/kg ([1]; read-out: % Reduction Glucose): 45.4%; inhibition in vivo at 50 mg/kg ([1]; read-out: % Reduction Triglycerides): 44.2%"
CCN1C(=O)OCC1Cc1ccc(Oc2ccc(CC3C(=O)Nc4ccccc43)cc2OC)cc1 (stereo not drawn) [Example 69],35.2,50.6,2.98,33.3,12.4,39.7,inhibition of TNF-α production (TNF-α; [2]): can inhibit the production; inhibition of IL-6 production (IL-6; [2]): can inhibit the production; inhibition of IL-1β production (IL-1β; [2]): can inhibit the production
"CN1CC(Cc2ccc(Oc3ccc(/C=C4/SC(=S)N(CC(=O)O)C4=O)cc3)cc2)OC1=O (stereo not drawn) [Example 32, 3-methyl-5-(4-{4-[(E)-(3-aceticacid-4-oxo-2-thioxo-1,3-thiazolidin-5-ylidene)methyl]phenoxy}benzyl)-1,3-oxazolidin-2-one]",–,–,–,–,–,–,Stimulation Index (3T3-L1 cells): 0.89
CN1C(=O)OCC1Cc1ccc(Oc2ccc(/C=C3\C(=O)Nc4ccccc43)cc2C(F)(F)F)cc1 (stereo not drawn) [Example 14],15.9,25.4,–,–,–,32.1,inhibition at 1 µM (DPP IV): 4.64%; inhibition at 10 µM (DPP IV): 7.42%; inhibition of breast cancer cell growth (MCF-7): strong inhibitor; inhibition of colon cancer cell growth (HT-29): strong inhibitor
CN1C(=O)OCC1Cc1ccc(Oc2ccc(CC3C(=O)Nc4ccccc43)cc2)cc1 (stereo not drawn) [Example 64],9.43,15.6,–,8.77,–,25.9,–
CN1C(=O)OCC1Cc1ccc(Oc2ccc(/C=C3/C(=O)Nc4ccccc43)cc2F)cc1 (stereo not drawn) [Example 7],0.93,6.43,–,–,–,–,inhibition at 1 µM (DPP IV): 3.55%; inhibition at 10 µM (DPP IV): 7.75%
CCN1C(=O)OCC1Cc1ccc(Oc2ccc(/C=C3\C(=O)Nc4ccccc43)cc2Cl)cc1 (stereo not drawn) [Example 10],20.2,35,15.5,–,7.18,–,–
CCN1C(=O)OCC1Cc1ccc(Oc2ccc(CC3C(=O)Nc4ccccc43)cc2F)cc1 (stereo not drawn) [Example 66],–,–,3.58,–,–,–,–
"5-(3-methoxy-4-{4-[(3-methyl-2-oxo-1,3-oxazolidin-4-yl)methyl]phenoxybenzylidene)-1,3-dihydro-2H-indol-2-one [Example 11]",–,–,–,–,–,–,"Stimulation Index (3T3-L1 cells): 1.12; % Inhibition TNF alpha (TNF-α; 1 μM): 18.77%; % Inhibition TNF alpha (TNF-α; 10 μM): 26.07%; % Inhibition IL1beta (IL-1β; 1 μM, LPS 100 ng/mL, 20 hours): 17.10%"
COc1cc(CC2C(=O)Nc3ccccc32)ccc1Oc1ccc(CC2COC(=O)N2C)cc1 (stereo not drawn) [Example 67],20.9,34,–,12.1,2.12,20.9,–
CN1C(=O)OCC1Cc1ccc(Oc2ccc(/C=C3\C(=O)Nc4ccccc43)cc2)cc1 (stereo not drawn) [Example 4],8.77,2.85,–,1.55,–,10.7,–
